Experimental data from PMC6923765, “Structural Design, Synthesis, and Preliminary Biological Evaluation of Novel Dihomooxacalix[4]arene-Based Anti-tumor Agents” (Frontiers in Chemistry, 2019).
Like-named read-outs stand apart in the source and are kept apart here.

How the values were obtained:
[1] = system: A549 cells (human lung carcinoma cells); assay: SRB cytotoxicity assay, A549 cells; assay type: cell-based
Description: (§1) A549 cells (human lung carcinoma cells), MCF-7 cells (human breast cancer cells), HeLa cells (human cervical cancer cells), HepG2 cells (human hepatocellular carcinoma cells), and HUVEC cells (human umbilical vein endothelial cells) were kindly provided by WeiFang Caleb Pharmaceuticals, Inc. A549 cells were cultured in Ham's F12K medium containing 10% fetal bovine serum, 2 mM L-glutamine, and 1.5 g/L sodium bicarbonate; MCF-7 cells were cultured on cell culture flask using RPMI 1640 medium with 2 mM L-glutamine adjusted to contain 1.5 g/L sodium bicarbonate, 4.5 g/L glucose, 10 mM HEPES, 1.0 mM sodium pyruvate, and 10% fetal bovine serum. Hela cells were cultured on Cell culture flask using 2 mM L-glutamine adjusted to contain 1.5 g/L sodium bicarbonate, 4.5 g/L glucose, 10 mM HEPES, and 1.0 mM sodium pyruvate in RPMI 1640 medium supplemented with 0.5 mg/ml G418 and 10% fetal bovine serum. HepG2 cells were cultured in minimum essential medium (Eagle) with 2 mM L-glutamine, Earle's BSS, 1.5 g/L sodium bicarbonate, 0.1 mM non-essential amino acids, 1.0 mM sodium pyruvate, and 10% fetal bovine serum. HUVEC cells were cultured in M199 medium containing 2 mM L-glutamine adjusted to contain 1.5 g/L sodium bicarbonate, 4.5 g/L glucose, 10 mM HEPES, 1.0 mM sodium pyruvate, ECGS, and 10% fetal bovine serum. All cells were cultured at 37°C in 5% CO2.
(§2) The cell proliferation of adherent cells was determined by sulforhodamine B assay (SRB) (Quan et al., [2009]; Li et al., [2017]). All cells were cultured in culture medium containing 10% fetal bovine serum and have been in the logarithmic growth phase. All cell types were seeded in a 96-well culture plate at a concentration of 1–5 × 10^4 cells per well at 37°C in a 5% CO2 incubator for 24 h. The cells were then exposed to seven drug concentrations of dihomooxacalix[4]arene derivatives for 72 h with each concentration located in three wells. Then, the cells were fixed with trichloroacetic acid (TCA). After washing, SRB working solution was added to the cells to […]. SRB combined with protein was dissolved in Tris base. OD values were measured for each well with a SPECTRA max 190 Cell microplate reader under 540 nm wavelength. According to the OD value, the cell growth inhibition rate was calculated.

[2] = system: MCF-7 cells (human breast cancer cells); assay: SRB cytotoxicity assay, MCF-7 cells; assay type: cell-based; conditions: for inhibition at 10 µM: MCF7, 10 μM, 72 h
Description: as §1, §2

[3] = system: HeLa cells (human cervical cancer cells); assay: SRB cytotoxicity assay, HeLa cells; assay type: cell-based
Description: as §1, §2

[4] = system: HepG2 cells (human hepatocellular carcinoma cells); assay: SRB cytotoxicity assay, HepG2 cells; assay type: cell-based
Description: as §1, §2

[5] = system: HUVEC cells (human umbilical vein endothelial cells); assay: SRB cytotoxicity assay, HUVEC normal cells; assay type: cell-based
Description: as §1, §2

[6] = 72 h, SRB, read-out: IC50 (μM) A549
[7] = MCF7, 72 h, SRB, read-out: IC50 (μM) MCF-7
[8] = 72 h, SRB, read-out: IC50 (μM) HeLa
[9] = 72 h, SRB, read-out: IC50 (μM) HepG2
[10] = Homo sapiens, HUVEC, 72 h, 10 μM, SRB, toxicity to normal cells

| SMILES | inhibition at 10 µM ([1]; 72 h, SRB) [%] | IC50 [1, 6] [µM] | inhibition at 10 µM ([2]; SRB) [%] | IC50 [2, 7] [µM] | inhibition at 10 µM ([3]; 72 h, SRB) [%] | IC50 [3, 8] [µM] | inhibition at 10 µM ([4]; 72 h, SRB) [%] | IC50 [4, 9] [µM] | % inhibition at 10 μM HUVEC ([5]; 10 μM, 72 h, SRB, toxicity to normal cells) [%] | inhibition at 10 µM [5, 10] [%] | melting point [°C] | IC50 ([1]; printed in the % inhibition column of Table 1, read-out: IC50 A549 (positive control)) [µM] | IC50 ([2]; MCF7, printed in the % inhibition column of Table 1, read-out: IC50 MCF-7 (positive control)) [µM] | IC50 ([3]; HeLa, printed in the % inhibition column of Table 1, read-out: IC50 HeLa (positive control)) [µM] | IC50 ([4]; printed in the % inhibition column of Table 1, read-out: IC50 HepG2 (positive control)) [µM] | IC50 ([5]; Homo sapiens, HUVEC, printed in the % inhibition column of Table 1, read-out: IC50 HUVEC (positive control)) [nM] |
| --- | --- | --- | --- | --- | --- | --- | --- | --- | --- | --- | --- | --- | --- | --- | --- | --- |
| CC(C)(C)c1cc2c(O)c(c1)Cc1cc(C(C)(C)C)cc(c1OCC(=O)NCCO)Cc1cc(C(C)(C)C)cc(c1O)Cc1cc(C(C)(C)C)cc(c1OCC(=O)NCCO)C2 [CLX-4, 5,11,17,23-tetra-tert-butyl-25,27-bis [N-(2-hydroxyethyl)aminocarbonylmethoxyl] calix[4]arene, reference compound] | 93 | 2.8 ± 0.3 | 99 | 2.1 ± 0.4 | 92 | 1.9 ± 0.2 | 94 | 6.6 ± 0.8 | 16 | 18 | – | – | – | – | – | – |
| CC(C)(C)c1cc2c(O)c(c1)Cc1cc(C(C)(C)C)cc(c1OCC(=O)N(CCO)CCO)Cc1cc(C(C)(C)C)cc(c1O)Cc1cc(C(C)(C)C)cc(c1OCC(=O)N(CCO)CCO)COC2 [Compound 4B, 7,13,19,25-tetra-tert-butyl-28,30-di-hydroxy-27,29-di-(N,N-bis(2-hydroxyethyl)-aminocarbonylmethoxyl)-2,3-dihomo−3-oxacalix[4]arene] | 66 | 3.9 ± 0.5 | 73 | 4.4 ± 0.7 | 100 | 1.1 ± 0.5 | 39 | 3.8 ± 0.3 | – | 23 | 210.7 to 212.5 | – | – | – | – | – |
| CC(C)(C)c1cc2c(O)c(c1)Cc1cc(C(C)(C)C)cc(c1OCC(=O)NCCCCN)Cc1cc(C(C)(C)C)cc(c1O)Cc1cc(C(C)(C)C)cc(c1OCC(=O)NCCCCN)COC2 [Compound 4C, 7,13,19,25-tetra-tert-butyl-28,30-di-hydroxy-27,29-di-(N-(4-aminobutyl)-aminocarbonylmethoxyl)-2,3-dihomo-3-oxacalix[4] arene] | 42 | 3.3 ± 0.7 | 78 | 5.4 ± 2.6 | 96 | 2.3 ± 0.1 | 64 | 5 ± 0.8 | – | 55 | 129.4 to 131.2 | – | – | – | – | – |
| CC(C)(C)c1cc2c(O)c(c1)Cc1cc(C(C)(C)C)cc3c1OCC(=O)NCCNC(=O)COc1c(cc(C(C)(C)C)cc1Cc1cc(C(C)(C)C)cc(c1O)C3)COC2 [Compound 4E] | 60 | 12.4 ± 2.2 | 50 | – | 46 | – | 21 | – | – | 26 | 204.8 to 206.3 | – | – | – | – | – |
| CC(C)(C)c1cc2c(O)c(c1)Cc1cc(C(C)(C)C)cc3c1OCC(=O)NCCCNC(=O)COc1c(cc(C(C)(C)C)cc1Cc1cc(C(C)(C)C)cc(c1O)C3)COC2 [Compound 4F] | 63 | 2.9 ± 0.7 | 46 | – | 59 | – | 9 | – | – | 42 | 189.5 to 191.4 | – | – | – | – | – |
| CC(C)(C)c1cc2c(O)c(c1)Cc1cc(C(C)(C)C)cc3c1OCC(=O)NCCCCNC(=O)COc1c(cc(C(C)(C)C)cc1Cc1cc(C(C)(C)C)cc(c1O)C3)COC2 [Compound 4G] | 21 | – | 34 | – | 40 | – | 16 | – | – | 34 | 157.6 to 158.7 | – | – | – | – | – |
| CCNC(=O)COc1c2cc(C(C)(C)C)cc1Cc1cc(C(C)(C)C)cc(c1O)Cc1cc(C(C)(C)C)cc(c1OCC(=O)NCC)Cc1cc(C(C)(C)C)cc(c1O)COC2 [Compound 4H, 7,13,19,25-tetra-tert-butyl-28,30-di-hydroxy-27,29-di-(N-ethyl-aminocarbonylmethoxyl)-2,3-dihomo-3-oxacalix [4]arene] | 31 | – | 37 | – | 41 | – | 31 | – | – | 6 | 138.9 to 141.2 | – | – | – | – | – |
| CC(C)NC(=O)COc1c2cc(C(C)(C)C)cc1Cc1cc(C(C)(C)C)cc(c1O)Cc1cc(C(C)(C)C)cc(c1OCC(=O)NC(C)C)Cc1cc(C(C)(C)C)cc(c1O)COC2 [Compound 4I, 7,13,19,25-tetra-tert-butyl-28,30-di-hydroxy-27,29-di-(N-isopropyl-aminocarbonylmethoxyl)-2,3-dihomo-3-oxa calix[4]arene] | 45 | – | 17 | – | 44 | – | 9 | – | – | 16 | 133.3 to 135.7 | – | – | – | – | – |
| CC(C)CNC(=O)COc1c2cc(C(C)(C)C)cc1Cc1cc(C(C)(C)C)cc(c1O)Cc1cc(C(C)(C)C)cc(c1OCC(=O)NCC(C)C)Cc1cc(C(C)(C)C)cc(c1O)COC2 [Compound 4J, 7,13,19,25-tetra-tert-butyl-28,30-di-hydroxy-27,29-di-(N-isobutyl-aminocarbonylmethoxyl)-2,3-dihomo-3-oxacalix [4]arene] | 54 | 16.9 ± 3.2 | 40 | – | 35 | – | 10 | – | – | 0 | 128.1 to 130.8 | – | – | – | – | – |
| CCCCNC(=O)COc1c2cc(C(C)(C)C)cc1Cc1cc(C(C)(C)C)cc(c1O)Cc1cc(C(C)(C)C)cc(c1OCC(=O)NCCCC)Cc1cc(C(C)(C)C)cc(c1O)COC2 [Compound 4K, 7,13,19,25-tetra-tert-butyl-28,30-di-hydroxy-27,29-di-(N-butyl-aminocarbonylmethoxyl)-2,3-dihomo-3-oxacalix[4] arene] | 65 | 4.5 ± 1.4 | 41 | – | 42 | – | 6 | – | – | 1 | 119.5 to 120.8 | – | – | – | – | – |
| CCCCCNC(=O)COc1c2cc(C(C)(C)C)cc1Cc1cc(C(C)(C)C)cc(c1O)Cc1cc(C(C)(C)C)cc(c1OCC(=O)NCCCCC)Cc1cc(C(C)(C)C)cc(c1O)COC2 [Compound 4L, 7,13,19,25-tetra-tert-butyl-28,30-di-hydroxy-27,29-di-(N-pentyl-aminocarbonylmethoxyl)-2,3-dihomo-3-oxacalix[4] arene] | 66 | 1.7 ± 0.4 | 41 | – | 49 | – | 18 | – | – | 12 | 117.7 to 119.3 | – | – | – | – | – |
| CC(=O)O[C@H]1C(=O)[C@@]2(C)[C@H]([C@H](OC(=O)c3ccccc3)[C@]3(O)C[C@H](OC(=O)[C@H](O)[C@@H](NC(=O)c4ccccc4)c4ccccc4)C(C)=C1C3(C)C)[C@]1(OC(C)=O)CO[C@@H]1C[C@@H]2O [Paclitaxel, paclitaxel, reference compound] | – | – | – | – | – | – | – | – | – | – | – | 0.00059 | 0.0008 | 0.0027 | 0.005 | 1 |
